Experimental data published in patent US11292796B2 (SIGNAL PHARMACEUTICALS, LLC, priority 2008, dated 2022).

Target: T1, mTOR (Homo sapiens, UniProt P42345)
T1 construct: purchased Invitrogen PR8683A
Experiment: mTOR HTR-FRET assay
Format: biochemical
Settings: read-out: Act. Level (IC50 in mTor HTR-FRET assay)
Method: The following is an example of an assay that can be used to determine the mTOR inhibitory activity of a test compound. Heteroaryl Compounds were dissolved in DMSO and prepared as 10 mM stocks and diluted appropriately for the experiments. Reagents were prepared as follows:
“Simple TOR buffer” (used to dilute high glycerol TOR fraction): 10 mM Tris pH 7.4, 100 mM NaCl, 0.1% Tween-20, 1 mM DTT. Invitrogen mTOR (cat #PR8683A) was diluted in this buffer to an assay concentration of 0.200 μg/mL.
To 20 μL of the Simple mTor buffer is added 0.5 μL of test compound in DMSO. To initiate the reaction 5 μL of ATP/Substrate solution was added to 20 μL of the Simple TOR buffer solution (control) and to the compound solution prepared above.

T1 sequence (P42345 1360-2549 limits assumed): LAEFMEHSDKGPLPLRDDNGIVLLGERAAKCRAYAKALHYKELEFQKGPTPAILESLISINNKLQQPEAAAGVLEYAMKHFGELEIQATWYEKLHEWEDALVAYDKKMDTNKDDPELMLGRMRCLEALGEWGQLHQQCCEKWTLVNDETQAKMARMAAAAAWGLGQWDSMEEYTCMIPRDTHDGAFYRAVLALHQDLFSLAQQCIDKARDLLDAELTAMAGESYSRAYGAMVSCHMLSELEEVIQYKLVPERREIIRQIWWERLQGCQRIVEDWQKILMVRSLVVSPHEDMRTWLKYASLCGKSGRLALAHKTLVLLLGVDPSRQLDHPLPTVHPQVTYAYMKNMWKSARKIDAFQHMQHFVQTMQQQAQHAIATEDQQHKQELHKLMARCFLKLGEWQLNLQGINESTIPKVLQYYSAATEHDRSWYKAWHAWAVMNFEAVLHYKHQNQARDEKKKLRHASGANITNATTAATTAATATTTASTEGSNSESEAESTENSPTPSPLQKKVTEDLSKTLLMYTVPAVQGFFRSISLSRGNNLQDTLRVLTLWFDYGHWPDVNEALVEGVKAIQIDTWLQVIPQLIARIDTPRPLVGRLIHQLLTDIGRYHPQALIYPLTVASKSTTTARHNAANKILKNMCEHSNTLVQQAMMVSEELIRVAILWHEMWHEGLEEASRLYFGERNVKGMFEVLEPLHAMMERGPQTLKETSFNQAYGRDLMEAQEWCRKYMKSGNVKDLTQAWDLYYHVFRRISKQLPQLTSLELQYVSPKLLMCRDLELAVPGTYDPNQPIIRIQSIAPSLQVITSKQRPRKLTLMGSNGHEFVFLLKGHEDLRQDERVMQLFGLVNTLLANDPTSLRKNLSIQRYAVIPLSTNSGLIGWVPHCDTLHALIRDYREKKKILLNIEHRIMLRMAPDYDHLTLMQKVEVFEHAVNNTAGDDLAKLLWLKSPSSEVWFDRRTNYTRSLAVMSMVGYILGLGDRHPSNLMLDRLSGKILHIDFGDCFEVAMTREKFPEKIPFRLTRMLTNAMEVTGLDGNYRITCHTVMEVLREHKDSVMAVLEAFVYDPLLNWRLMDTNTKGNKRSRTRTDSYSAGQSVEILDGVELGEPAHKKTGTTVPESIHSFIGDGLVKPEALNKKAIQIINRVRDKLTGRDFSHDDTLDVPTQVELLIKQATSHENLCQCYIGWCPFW

Row | Compound | IC50
1 | Cc1cc(-c2cnc3c(n2)N(CCC2CCOCC2)C(=O)CN3)cc2[nH]c(N)nc12 [Example 269, 7-(2-amino-4-methyl-1H-benzo[d]imidazol-6-yl)-1-(2-(tetrahydro-2H-pyran-4-yl)ethyl)-3,4-dihydropyrazino[2,3-b]pyrazin-2(1H)-one] | 0.005 to 250 nM
2 | Cc1cc(-c2nnc[nH]2)ccc1-c1cnc2c(n1)NCC(=O)N2 [Example 73, 6-(2-methyl-4-(4H-1,2,4-triazol-3-yl)phenyl)-3,4-dihydropyrazino[2,3-b]pyrazin-2(1H)-one] | 250 to 500 nM
3 | CC(C)(O)c1ccc(-c2cnc3c(n2)N(C[C@@H]2CCCO2)CC(=O)N3)cn1 [Example 115, (S)-6-(6-(2-hydroxypropan-2-yl)pyridin-3-yl)-4-((tetrahydrofuran-2-yl)methyl)-3,4-dihydropyrazino[2,3-b]pyrazin-2(1H)-one] | 1000 to 10000 nM
4 | CO[C@@H]1CC[C@@H](N2CC(=O)Nc3ncc(-c4ccc(C(C)(C)O)nc4)nc32)C1 [Example 56, 6-(6-(2-hydroxypropan-2-yl)pyridin-3-yl)-4-((1R,3R)-3-methoxycyclopentyl)-3,4-dihydropyrazino[2,3-b]pyrazin-2(1H)-one] | 0.005 to 250 nM
5 | COCCN1C(=O)CNc2ncc(-c3ccc(-c4nc[nH]n4)nc3)nc21 [Example 163, 7-(6-(1H-1,2,4-triazol-3-yl)pyridin-3-yl)-1-(2-methoxyethyl)-3,4-dihydropyrazino[2,3-b]pyrazin-2(1H)-one] | 0.005 to 250 nM
6 | CC(C)(C)CN1CC(=O)Nc2ncc(-c3ccc(C(C)(C)O)nc3)nc21 [Example 105, 6-(6-(2-hydroxypropan-2-yl)pyridin-3-yl)-4-neopentyl-3,4-dihydropyrazino[2,3-b]pyrazin-2(1H)-one] | 250 to 500 nM
7 | Cc1cc(-c2nnc[nH]2)ccc1-c1cnc2c(n1)NC1(CC1)C(=O)N2 [Example 66, 7′-(2-methyl-4-(4H-1,2,4-triazol-3-yl)phenyl)-1′H-spiro[cyclopropane-1,2′-pyrazino[2,3-b]pyrazin]-3′(4′H)-one] | 0.005 to 250 nM
8 | CC(C)(O)c1ccc(-c2cnc3c(n2)N(CC2CCOCC2)CC(=O)N3)cc1 [Example 90, 6-(4-(2-hydroxypropan-2-yl)phenyl)-4-((tetrahydro-2H-pyran-4-yl)methyl)-3,4-dihydropyrazino[2,3-b]pyrazin-2(1H)-one] | 0.005 to 250 nM
9 | COCCN1CC(=O)Nc2ncc(-c3cnc(-c4nc[nH]n4)cc3C)nc21 [Example 30, 4-(2-methoxyethyl)-6-(4-methyl-6-(1H-1,2,4-triazol-3-yl)pyridin-3-yl)-3,4-dihydropyrazino[2,3-b]pyrazin-2(1H)-one] | 0.005 to 250 nM
10 | CO[C@H]1CC[C@H](N2CC(=O)Nc3ncc(-c4cnc(C(C)(C)O)cc4C)nc32)CC1 [Example 77, 6-(6-(2-hydroxypropan-2-yl)-4-methylpyridin-3-yl)-4-(trans-4-methoxycyclohexyl)-3,4-dihydropyrazino[2,3-b]pyrazin-2(1H)-one] | 0.005 to 250 nM
11 | CO[C@H]1CC[C@H](N2CC(=O)Nc3ncc(-c4ccc(-c5nnc[nH]5)nc4C)nc32)C1 [Example 41, 4-((1S,3S)-3-methoxycyclopentyl)-6-(2-methyl-6-(4H-1,2,4-triazol-3-yl)pyridin-3-yl)-3,4-dihydropyrazino[2,3-b]pyrazin-2(1H)-one] | 0.005 to 250 nM
12 | CO[C@@H]1CC[C@@H](CN2CC(=O)Nc3ncc(-c4ccc(C(C)(C)O)nc4)nc32)C1 [Example 54, 6-(6-(2-hydroxypropan-2-yl)pyridin-3-yl)-4-(((1R,3R)-3-methoxycyclopentyl)methyl)-3,4-dihydropyrazino[2,3-b]pyrazin-2(1H)-one] | 0.005 to 250 nM
13 | NC(=O)c1ccc(-c2cnc3c(n2)N(CCC2CCOCC2)CC(=O)N3)cc1 [Example 70, 4-(6-oxo-8-(2-(tetrahydro-2H-pyran-4-yl)ethyl)-5,6,7,8-tetrahydropyrazino[2,3-b]pyrazin-2-yl)benzamide] | 1000 to 10000 nM
14 | Cc1c(-c2cnc3c(n2)N(CCC2CCOCC2)C(=O)CN3)ccc(-c2nc[nH]n2)c1F [Example 248, 7-(3-fluoro-2-methyl-4-(1H-1,2,4-triazol-3-yl)phenyl)-1-(2-(tetrahydro-2H-pyran-4-yl)ethyl)-3,4-dihydropyrazino[2,3-b]pyrazin-2(1H)-one] | 0.005 to 250 nM
15 | CNc1ccc(-c2cnc3c(n2)N(CCC2CCOCC2)C(=O)CN3)cn1 [Example 184, 7-(6-(methylamino)pyridin-3-yl)-1-(2-(tetrahydro-2H-pyran-4-yl)ethyl)-3,4-dihydropyrazino[2,3-b]pyrazin-2(1H)-one] | 0.005 to 250 nM
16 | COCCN1CC(=O)Nc2ncc(-c3ccc(-c4nc[nH]n4)nc3)nc21 [Example 16] | 0.005 to 250 nM
17 | Nc1cc(-c2cnc3c(n2)N(CCC2CCOCC2)C(=O)CN3)ccn1 [Example 183, 7-(2-aminopyridin-4-yl)-1-(2-(tetrahydro-2H-pyran-4-yl)ethyl)-3,4-dihydropyrazino[2,3-b]pyrazin-2(1H)-one] | 500 to 1000 nM
18 | CC(C)(O)c1ccc(-c2cnc3c(n2)N(Cc2ccc(C(F)(F)F)cc2)C(=O)CN3)cn1 [Example 257, 7-(6-(2-hydroxypropan-2-yl)pyridin-3-yl)-1-(4-(trifluoromethyl)benzyl)-3,4-dihydropyrazino[2,3-b]pyrazin-2(1H)-one] | 0.005 to 250 nM
19 | Cc1nc(-c2nnc[nH]2)ccc1-c1cnc2c(n1)N(Cc1cccc(C#N)c1)C(=O)CN2 [Example 203, 3-((7-(2-methyl-6-(4H-1,2,4-triazol-3-yl)pyridin-3-yl)-2-oxo-3,4-dihydropyrazino[2,3-b]pyrazin-1(2H)-yl)methyl)benzonitrile] | 0.005 to 250 nM
20 | CC(C)(O)c1ccc(-c2cnc3c(n2)N([C@H]2CC[C@@H](O)CC2)CC(=O)N3)cn1 [Example 102, 4-(cis-4-hydroxycyclohexyl)-6-(6-(2-hydroxypropan-2-yl)pyridin-3-yl)-3,4-dihydropyrazino[2,3-b]pyrazin-2(1H)-one] | 250 to 500 nM
21 | Cc1cc(-c2nnc[nH]2)ccc1-c1cnc2c(n1)NC1(CCCC1)C(=O)N2 [Example 64, 7′-(2-methyl-4-(4H-1,2,4-triazol-3-yl)phenyl)-1′H-spiro[cyclopentane-1,2′-pyrazino[2,3-b]pyrazin]-3′(4′H)-one] | 250 to 500 nM
22 | CC(C)(O)c1ccc(-c2cnc3c(n2)N(Cc2cccc(C(F)(F)F)c2)CC(=O)N3)cn1 [Example 137, 6-(6-(2-hydroxypropan-2-yl)pyridin-3-yl)-4-(3-(trifluoromethyl)benzyl)-3,4-dihydropyrazino[2,3-b]pyrazin-2(1H)-one] | 0.005 to 250 nM
23 | CO[C@H]1CC[C@@H](CN2CC(=O)Nc3ncc(-c4ccc(-c5nnc[nH]5)nc4C)nc32)C1 [Example 46, 4-(((1R,3S)-3-methoxycyclopentyl)methyl)-6-(2-methyl-6-(4H-1,2,4-triazol-3-yl)pyridin-3-yl)-3,4-dihydropyrazino[2,3-b]pyrazin-2(1H)-one] | 0.005 to 250 nM
24 | C[C@H](O)c1ccc(-c2cnc3c(n2)N(CCC2CCOCC2)CC(=O)N3)cn1 [Example 83, (S)-6-(6-(1-hydroxyethyl)pyridin-3-yl)-4-(2-(tetrahydro-2H-pyran-4-yl)ethyl)-3,4-dihydropyrazino[2,3-b]pyrazin-2(1H)-one] | 250 to 500 nM
25 | O=C1CNc2ncc(-c3ccc(O)nc3)nc2N1CCC1CCOCC1 [Example 185, 7-(6-hydroxypyridin-3-yl)-1-(2-(tetrahydro-2H-pyran-4-yl)ethyl)-3,4-dihydropyrazino[2,3-b]pyrazin-2(1H)-one] | 1000 to 10000 nM
